Data as given in patent US10517889B2, “Modulators of SMAD7 expression” (Ionis Pharmaceuticals, Inc., priority 2017, dated 2019).
Strand notation (5' to 3'): a small letter for the sugar, then the base; units joined by * are phosphorothioate-linked, units joined directly phosphodiester-linked; [ ] holds rarer units or linkages, { } end groups; capitals alone tell only the bases. e = 2'-O-(2-methoxyethyl) (MOE); [5mC] = 5-methylcytosine; d = 2'-deoxy (DNA)

Tested on: human SMAD7 mRNA
Experiment: Antisense inhibition of human SMAD7 mRNA expression in Hep3B cells by 5-10-5 MOE gapmers, single concentration, electroporation, RT-PCR (Example 1, Study 1 and 2)
Type: cell-based
Procedure, shortened: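 Hep3B cells (20,000/well) electroporated with 5-10-5 MOE gapmer at 5,000 nM or 15,000 nM for approximately 24 h. SMAD7 mRNA quantified by real-time PCR with primer probe set RTS5062 and normalized to RIBOGREEN total RNA. Values are percent inhibition relative to untreated controls.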

[1] = electroporation with 15,000 nM antisense oligonucleotide (Study 2), 5-10-5 MOE gapmers targeting SEQ ID NO: 1 and 2
[2] = Study 2, electroporation with 15,000 nM antisense oligonucleotide, 5-10-5 MOE gapmers targeting SEQ ID NO: 1 and 2
[3] = electroporation, 15,000 nM, approximately 24 hours, relative to untreated control cells, gapmers targeting SEQ ID NO: 1 and 2

## 771673 (antisense eA*eG*eG*eT*eT*dT*dT*dT*dT*dT*dT*d[5mC]*dA*dG*dG*eA*eG*eT*e[5mC]*e[5mC]) [compound 771673]
[1]
  % inhibition of SMAD7 mRNA expression: 44%

## 771674 (antisense eA*eT*eA*eA*eA*dT*d[5mC]*dT*d[5mC]*dA*dG*dG*dT*dT*dT*eT*eT*eT*eT*eT) [compound 771674]
[1]
  % inhibition of SMAD7 mRNA expression: 0%

## 771676 (antisense eT*eG*eT*eT*eT*dA*dT*dA*d[5mC]*dA*d[5mC]*dA*dT*dT*dG*e[5mC]*eA*e[5mC]*eA*eA) [compound 771676]
[2]
  % inhibition of SMAD7 mRNA expression: 2%

## 771677 (antisense eT*eT*eT*e[5mC]*eT*dT*dG*dT*dT*dT*dA*dT*dA*d[5mC]*dA*e[5mC]*eA*eT*eT*eG) [compound 771677]
[3]
  % inhibition of SMAD7 mRNA expression: 21%

## 771678 (antisense eT*eT*eA*eT*eT*dT*dT*dT*d[5mC]*dT*dT*dG*dT*dT*dT*eA*eT*eA*e[5mC]*eA) [compound 771678]
[2]
  % inhibition of SMAD7 mRNA expression: 0%

## 771679 (antisense eG*e[5mC]*eA*eT*e[5mC]*dT*dT*dT*dT*d[5mC]*dT*dT*dT*dA*dT*eT*eT*eT*eT*e[5mC]) [compound 771679]
[2]
  % inhibition of SMAD7 mRNA expression: 0%

## 771680 (antisense eA*eT*eT*eT*eA*dT*dA*dT*dT*dA*dA*dA*dG*d[5mC]*dA*eA*eA*eG*eT*eG) [compound 771680]
[1]
  % Inhibition of SMAD7 mRNA: 0%
  % inhibition of SMAD7 mRNA expression: 0%

## 771681 (antisense eT*eT*eT*eG*e[5mC]*dA*dT*dT*dT*dA*dT*dA*dT*dT*dA*eA*eA*eG*e[5mC]*eA) [compound 771681]
[1]
  % inhibition of SMAD7 mRNA expression: 0%

## 771682 (antisense eT*eG*eT*eT*eA*dT*dT*dT*dG*d[5mC]*dA*dT*dT*dT*dA*eT*eA*eT*eT*eA) [compound 771682]
[1]
  % inhibition of SMAD7 mRNA expression: 18%

## 771684 (antisense eA*eT*eT*eT*eG*dG*d[5mC]*dA*dT*dT*dT*dG*dT*dT*dA*eT*eT*eT*eG*e[5mC]) [compound 771684]
[2]
  % inhibition of SMAD7 mRNA expression: 0%

## 771685 (antisense e[5mC]*eT*eT*eT*eT*dT*dT*dA*dA*dT*dT*dT*dG*dG*d[5mC]*eA*eT*eT*eT*eG) [compound 771685]
[3]
  % inhibition of SMAD7 mRNA expression: 17%

## 771686 (antisense eG*eT*eT*eT*eA*dT*d[5mC]*dT*dT*dT*dT*dT*dT*dA*dA*eT*eT*eT*eG*eG) [compound 771686]
[2]
  % inhibition of SMAD7 mRNA expression: 0%

## 771687 (antisense e[5mC]*eT*eT*eG*eT*dG*dT*dT*dT*dA*dT*d[5mC]*dT*dT*dT*eT*eT*eT*eA*eA) [compound 771687]
[2]
  % inhibition of SMAD7 mRNA expression: 13%

## 771688 (antisense e[5mC]*eG*eT*eT*eT*dA*dA*dT*dG*dG*dA*dA*d[5mC]*dA*dT*eA*eA*eA*e[5mC]*eT) [compound 771688]
[1]
  % Inhibition of SMAD7 mRNA: 13%
  % inhibition of SMAD7 mRNA expression: 0%

## 771689 (antisense eA*eG*eT*eG*eT*dA*d[5mC]*dA*dT*dT*dT*dT*dA*dA*dA*eA*eA*eT*e[5mC]*eG) [compound 771689]
[1]
  % inhibition of SMAD7 mRNA expression: 30%

## 771690 (antisense e[5mC]*e[5mC]*eT*eA*eG*dT*dT*d[5mC]*dG*d[5mC]*dA*dG*dA*dG*dT*e[5mC]*eG*eG*e[5mC]*eT) [compound 771690]
electroporation, 15,000 nM antisense oligonucleotide (Study 2), 5-10-5 MOE gapmers targeting SEQ ID NO: 1 and 2
  % inhibition of SMAD7 mRNA expression: 43%

## 771692 (antisense e[5mC]*e[5mC]*e[5mC]*eA*eG*dG*dA*dG*dG*dG*dT*dA*dT*dG*d[5mC]*eA*e[5mC]*eA*e[5mC]*eT) [compound 771692]
[2]
  % Inhibition: 18%

## 771693 (antisense eT*e[5mC]*e[5mC]*e[5mC]*eA*dG*dG*dA*dG*dG*dG*dT*dA*dT*dG*e[5mC]*eA*e[5mC]*eA*e[5mC]) [compound 771693]
[3]
  % inhibition of SMAD7 mRNA expression: 45%

## 771694 (antisense e[5mC]*eT*e[5mC]*e[5mC]*e[5mC]*dA*dG*dG*dA*dG*dG*dG*dT*dA*dT*eG*e[5mC]*eA*e[5mC]*eA) [compound 771694]
[2]
  % Inhibition: 0%

## 771695 (antisense eT*e[5mC]*eT*e[5mC]*e[5mC]*d[5mC]*dA*dG*dG*dA*dG*dG*dG*dT*dA*eT*eG*e[5mC]*eA*e[5mC]) [compound 771695]
[2]
  % Inhibition: 22%
